Literature values as cited in article PMC7571151, “Design, Synthesis and Bioactivity Evaluation of 4,6-Disubstituted Pyrido[3,2-d]pyrimidine Derivatives as Mnk and HDAC Inhibitors” (Molecules, 2020).

Test system: Daudi non-Hodgkin lymphoma xenograft model
Design: method as in PMID 22693356
Details: cited from earlier work

## COc1ccc(-c2nc(N3CCOCC3)c3sc(CN(C)c4ncc(C(=O)NO)cn4)cc3n2)cn1 [CUDC-907]
Daudi non-Hodgkin lymphoma xenograft model
  tumor growth: inhibited tumor growth in a dose-dependent manner
In vivo anti-tumor activity studies
  Ac-H3 and p-AKT levels: accumulation of Ac-H3 and a decrease in p-AKT levels
